Results on 14 compounds are retold here after PubChem BioAssay (NCI).

What all share (assay): growth of human tumour cells (NCI), 48 h
For assay [1], the system named is BT-549 breast.
The subject of assay [2] is CCRF-CEM leukemia.
Assay [3] relates to EKVX NSCLC.
Assay [4] concerns HOP-92 NSCLC.
Assay [5] concerns KM12 colon.
The test system of assay [6] is NCI-H23 lung.
In assay [7] the test system is NCI-H522 lung.
For assay [8], the system named is RPMI-8226 leukemia.
Assay [9] has as its system SF-268 CNS.
The test system of assay [10] is SW-620 colon.

Each structure is given as a SMILES string.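 Cells were grown in 96-well plates and exposed to each compound for 48 hours at five concentrations; endpoints were interpolated linearly between bracketing concentrations, or set to the highest concentration if not reached. TGI: concentration producing complete growth inhibition.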 Where a SMILES comes first, the peptide text is derived from it. [ ]: non-standard residue; d: D form. The star is where a group is joined. hSer = N[CH](CCO)C(=O)O; Boc = CC(C)(C)OC(=O)*

As for `COC(=O)[C@]1(C)CCCn2c(=O)n(-c3ccccc3)c(=O)n21`, the TGI in [1], in assay [2], in assay [3], in assay [4], in assay [5] and in [6] was more than 100 µM each time. The TGI in assay [7], in [8], in [9] and in assay [10] was more than 100 µM in each case.
With `O=C(C=P(c1ccccc1)(c1ccccc1)c1ccccc1)C12CC3CC(CC(C3)C1)C2`, the TGI in assay [1] was 33.8 µM; in [2] it was 32.7 µM; in assay [3], 29.3 µM; in assay [4], 43.2 µM; in [5], 32 µM; in assay [6], 33.2 µM. The TGI in assay [7] came to 20.6 µM; in assay [8], 20.6 µM; in assay [9], 41.6 µM; in [10], 34.9 µM.
Consider `CN(C)CC1CCC/C(=C\c2ccc(N(C)C)cc2)C1=O` (stereo unspecified), for which the TGI in assay [1] was 29.7 µM; in assay [2] it was more than 100 µM; in assay [3], 30.4 µM; in assay [4], 9.79 µM; in [5], 2.93 µM; in assay [6], 28.7 µM. Further, the TGI in assay [7] is 3.21 µM; in assay [8] it was more than 100 µM; in assay [9] it was 3.57 µM; in assay [10], 3.29 µM.
On to `Cc1cc(-c2ccc(C(=O)C(Cl)(Cl)Cl)[nH]2)on1`, for which the TGI in assay [1] was 98.1 µM; in [2] it was more than 100 µM; in assay [3], more than 100 µM; in [4] it was more than 100 µM; in [5], 24.6 µM; in [6], 54.3 µM. Besides, the TGI in [7] was 97.4 µM; in assay [8], more than 100 µM; in assay [9], more than 100 µM; in assay [10], more than 100 µM.
As to `CCOC(=O)c1nc2c3c(ncn2n1)Oc1c(c(-c2ccccc2)nn1-c1ccccc1)C3c1ccc(OC)c(OC)c1` (stereo unspecified), the TGI in assay [1], in assay [2], in assay [3], in assay [4], in [6] and in [7] was more than 100 µM in each case. Also, the TGI in assay [8] is more than 100 µM; in [9] it was 71.1 µM; in assay [10], more than 100 µM.
Regarding `COc1ccc(C[C@@H]2CN(C(=O)c3ccccc3)[C@H](Cc3ccc(O)cc3)CN2C(=O)c2ccccc2)cc1Br`, the TGI in [1], in [2], in assay [3], in [4], in [5] and in assay [6] was more than 100 µM throughout. Further, the TGI in assay [8], in assay [9] and in [10] was more than 100 µM in each case.
Turning to `NC1=CN(CCCO)C2=N/C(=C\c3ccco3)C(=O)N12`, the TGI in assay [1], in assay [2], in [3], in assay [4], in assay [5] and in assay [6] was more than 100 µM in each case. For the same compound, the TGI in [7], in assay [8], in assay [9] and in assay [10] was more than 100 µM throughout.
With `COCCC(NC(=O)C(CC(C)C)NC(=O)OC(C)(C)C)C(N)=O` (stereo not drawn) (Boc-Leu-[hSer](Me)-NH2; configuration not given here), the TGI in [1], in assay [2], in [3], in [4], in assay [5] and in assay [7] was more than 100 µM in each case. For the same compound, the TGI in [8], in [9] and in [10] was more than 100 µM throughout.
For the compound `c1ccc(COc2ccc(C[P+](c3ccccc3)(c3ccccc3)c3ccccc3)cc2)cc1`, the TGI in assay [1] was 3.26 µM; in assay [2] it was 7.28 µM; in [3], 3.04 µM; in assay [4] it was 0.585 µM; in [5], 1.66 µM; in assay [6], 1.36 µM. Besides, the TGI in assay [7] was 1.61 µM; in assay [8], 0.201 µM; in assay [9] it was 14.2 µM; in assay [10] it was 10.2 µM.
Regarding `CC(C)(C)C1CCC2c3c([nH]c4ccccc34)C3C(=O)N(c4cc(Br)cc(Br)c4)C(=O)C3C2C1` (stereo unspecified), the TGI in assay [1] is more than 100 µM; in assay [2], 25.1 µM; in assay [3], 59.4 µM; in assay [4], 8.82 µM; in [5], more than 100 µM; in assay [6], 63.3 µM. In addition, the results for the TGI in [7], in assay [8] and in assay [10] were 66.4 µM, more than 100 µM and more than 100 µM, respectively.
With `Cc1c2c(n3c(nc4ccccc43)c1C#N)N(c1ccc(Cl)cc1)CC2`, the TGI in [1], in assay [2], in assay [3], in assay [4], in assay [6] and in assay [7] was more than 100 µM in each case. The TGI in assay [9] and in assay [10] was more than 100 µM in each case.
Take `Cc1cc(Br)c(N2C3=C(CC4=C2CCCC4=O)C(=O)CCC3)c(Br)c1`: the TGI in assay [1] was more than 100 µM; in assay [2] it was more than 100 µM; in assay [3], more than 100 µM; in assay [4], 94.3 µM; in assay [5] it was more than 100 µM; in assay [6], more than 100 µM. Moreover, the TGI in assay [8], in assay [9] and in assay [10] was more than 100 µM throughout.
As to `COC(=O)C(=O)C(C(=O)C(=O)Nc1ccccc1C(=O)OC)c1nc2ccc(C(=O)c3ccccc3)cc2[nH]c1=O` (stereo unspecified), the TGI in assay [1], in assay [3], in [4], in assay [5], in assay [6] and in assay [7] was more than 100 µM in each case. Besides, the TGI in assay [8], in assay [9] and in [10] was more than 100 µM throughout.
As for `COC(=O)OC[C@H]1O[C@@H](n2cc(C)c(=O)[nH]c2=O)CC1OC(=O)OC` (stereo partly specified), the TGI in [1], in [2], in assay [3], in assay [5], in assay [6] and in assay [7] was more than 100 µM in each case. The TGI in [8], in assay [9] and in assay [10] was more than 100 µM throughout.
